From patent US4316904A, “Indolopyrone tetrazoles and carboxamidotetrazoles having antiallergic activity” (priority 1979, dated 1982) come the findings set out here.

This experiment has as its system Reaginic Passive Cutaneous Anaphylaxis (PCA). Put plainly: Rat Reaginic Passive Cutaneous Anaphylaxis (PCA). Format: in vivo. To be noted: for inhibition in vivo at 5 mg/kg / inhibition in vivo at 1 mg/kg: ip, read-out: percent inhibition (PCA test); for inhibition (PCA test), oral: orally. Here is the method:
The compounds of the invention are new chemical substances of value as pharmacological agents which prevent the allergic response in mammals by inhibition of the release of such allergic mediators, as histamine. The assay by which this utility was established is carried out as follows.
Rat Reaginic Passive Cutaneous Anaphylaxis (PCA)
The PCA test (D. J. Herzig, P. R. Schumann, E. J. Kusner, L. Robichaud, R. E. Giles, B. Dubnick, M. von Strandtmann, S. Klutchko, M. Cohen, and J. Shavel, Jr., "Immunopharmacology", M. E. Rosenthale and H. C. Mansmann, Eds., Spectrum Publications, Inc., New York, N.Y., 1975, pp. 103-124) involved immunization of rats with 1 mg of ovalbumin intramuscularly and approximately 10^10 B. pertussis organisms as pertussis vaccine, intraperitoneally. Fourteen days later, the rats were bled and the serum was prepared. Suitable dilutions of antiserum were injected intradermally at various sites on the back of rats 48 h before an intravenous injection of 1 mg of ovalbumin in 1 ml of physiological saline and 0.25% Evans Blue. Thirty minutes later the animals were killed in ether, the dorsal skin was reflected, and the mean orthogonal diameter of the wheal was measured. For oral or intraperitoneal dosing, the drugs were suspended in 1% gum tragacanth in physiological saline and given 10-15 min before intravenous antigen challenge. For intravenous dosing, the compounds were dissolved in the saline/ovalbumin/Evans Blue solution and given with the antigen. If necessary, the compounds were first dissolved in a slight molar excess of sodium bicarbonate and then diluted into the antigen solution. Groups of five animals were used for all dose levels and control groups.
To quantitate the PCA test, the mean diameter of each wheal spot was graphed as a function of the relative antiserum concentration. The line, fitted by the least-squares equation, was extrapolated to the value at "zero" antiserum concentration (base value). The following equation was then used to calculate the percent inhibition: [formula]
The statistical significance of the results was determined by Student's t test (p≤0.05). An inhibition of 15% was significant. The test results obtained for the compounds of the invention as well as for the corresponding acids (U.S. Pat. No. 4,028,383) are given as percent inhibition in the following table.

The mark [1] stands for this setting: 5 mg/kg, 10-15 min before intravenous antigen challenge.
Setting [2] is: 10-15 min before intravenous antigen challenge.

Regarding `Cn1c2c([N+](=O)[O-])cc([N+](=O)[O-])cc2c2oc(C(=O)O)cc(=O)c21` [6,8-di-NO2 /CH3 A, 4,5-Dihydro-5-methyl-6,8-dinitro-4-oxopyrano[3,2-b]indole-2-carboxylic acid, reference compound], under setting [1], the inhibition in vivo at 5 mg/kg turned out to be 0%.

With `Cn1c2c([N+](=O)[O-])cc([N+](=O)[O-])cc2c2oc(C(=O)Nc3nnn[nH]3)cc(=O)c21` [6,8-di-NO2 /CH3 C, 4,5-Dihydro-5-methyl-6,8-dinitro-4-oxo-N-1H-tetrazol-5-ylpyrano[3,2-b]indole-2-carboxamide], the inhibition in vivo at 5 mg/kg under setting [1] turned out to be 48%.

On to `Cc1ccc2c(c1)c1oc(C(=O)O)cc(=O)c1n2C` [8-CH3 /CH3 A, 4,5-dihydro-5,8-dimethyl-4-oxopyrano[3,2-b]indole-2-carboxylic acid, reference compound], for which the inhibition in vivo at 1 mg/kg under setting [2] was determined as 18%.

On to `Cc1ccc2c(c1)c1oc(C(=O)Nc3nnn[nH]3)cc(=O)c1n2C` [8-CH3 /CH3 C, 4,5-Dihydro-5,8-dimethyl-4-oxo-N-1H-tetrazol-5-ylpyrano[3,2-b]indole-2-carboxamide], for which the inhibition in vivo at 1 mg/kg under setting [2] is 33%. In addition, the inhibition in vivo at 5 mg/kg under setting [1] amounted to 100%.

On to `Cc1ccc2c(c1)c1oc(-c3nnn[nH]3)cc(=O)c1n2C` [8-CH3 /CH3 T, 5,8-Dimethyl-2-(1H-tetrazol-5-yl)pyrano[3,2-b]indol-4(5H)-one], for which the inhibition in vivo at 1 mg/kg under setting [2] was determined as 25%. For the same compound, the inhibition in vivo at 5 mg/kg under setting [1] is 100%. Besides, where the note is “5 mg/kg”, the “inhibition (PCA test), oral” value was 56%.

Consider `Cn1c2ccc(Cl)cc2c2oc(C(=O)O)cc(=O)c21` [8-Cl/CH3 A, 8-chloro-4,5-dihydro-5-methyl-4-oxopyrano[3,2-b]indole-2-carboxylic acid, reference compound], for which the inhibition in vivo at 5 mg/kg under setting [1] was 23%.

On to `Cn1c2ccc(Cl)cc2c2oc(C(=O)Nc3nnn[nH]3)cc(=O)c21` [8-Cl/CH3 C, 8-Chloro-4,5-dihydro-5-methyl-4-oxo-N-1H-tetrazol-5-ylpyrano[3,2-b]indole-2-carboxamide], for which the inhibition in vivo at 1 mg/kg under setting [2] turned out to be 38%. In addition, under setting [1], the inhibition in vivo at 5 mg/kg worked out at 100%.

As to `Cn1c2ccc(Cl)cc2c2oc(-c3nnn[nH]3)cc(=O)c21` [8-Cl/CH3 T, 8-Chloro-5-methyl-2-(1H-tetrazol-5-yl)pyrano[3,2-b]indol-4(5H)-one], the inhibition in vivo at 1 mg/kg under setting [2] stood at 46%. Besides, the inhibition in vivo at 5 mg/kg under setting [1] was determined as 100%. Also, where the note is “5 mg/kg”, the “inhibition (PCA test), oral” value amounted to 33%.

For `Cn1c2ccc([N+](=O)[O-])cc2c2oc(C(=O)O)cc(=O)c21` [8-NO2 /CH3 A, 4,5-Dihydro-5-methyl-8-nitro-4-oxopyrano-[3,2-b]indole-2-carboxylic acid, reference compound], the inhibition in vivo at 1 mg/kg under setting [2] turned out to be 1%. The inhibition in vivo at 5 mg/kg under setting [1] is 100%.

As to `Cn1c2ccc([N+](=O)[O-])cc2c2oc(C(=O)Nc3nnn[nH]3)cc(=O)c21` [8-NO2 /CH3 C, 4,5-Dihydro-5-methyl-8-nitro-4-oxo-N-1H-tetrazol-5-ylpyrano[3,2-b]indole-2-carboxamide], under setting [2], the inhibition in vivo at 1 mg/kg was found to be 42%. Also, the inhibition in vivo at 5 mg/kg under setting [1] came out at 100%.

In the case of `O=C(O)c1cc(=O)c2c(o1)c1ccccc1n2-c1ccccc1` [H/.phi. A, reference compound], the inhibition in vivo at 1 mg/kg under setting [2] worked out at 13%.

For `O=C(Nc1nn[nH]n1)c1cc(=O)c2c(o1)c1ccccc1n2-c1ccccc1` [H/.phi. C], the “percent inhibition (PCA test)” value (i.p., 5 mg/kg, 10-15 min before intravenous antigen challenge) was “Inac”.

For `O=c1cc(-c2nnn[nH]2)oc2c3ccccc3n(-c3ccccc3)c12` [H/.phi. T, 5-Phenyl-2(1H-tetrazol-5-yl)pyrano[3,2-b]indol-4(5H)-one], the “inhibition (PCA test), intravenous” value (intravenously, 0.1 mg/kg, given with the antigen) is on record as 28%. Besides, the inhibition in vivo at 1 mg/kg under setting [2] was 61%. The inhibition in vivo at 5 mg/kg under setting [1] was determined as 100%. Further, where the note is “2 mg/kg”, the “inhibition (PCA test), oral” value is recorded as 32%.

`CCn1c2ccccc2c2oc(C(=O)O)cc(=O)c21` [H/C2 H5 A, 5-ethyl-4,5-dihydro-4-oxopyrano[3,2-b]indole-2-carboxylic acid, reference compound]: under setting [2], the inhibition in vivo at 1 mg/kg turned out to be 0%.

Regarding `CCn1c2ccccc2c2oc(C(=O)Nc3nnn[nH]3)cc(=O)c21` [H/C2 H5 C, 5-Ethyl-4,5-dihydro-4-oxo-N-1H-tetrazol-5-ylpyrano[3,2-b]indole-2-carboxamide], the inhibition in vivo at 1 mg/kg under setting [2] was determined as 12%. The inhibition in vivo at 5 mg/kg under setting [1] came out at 100%.

`CCn1c2ccccc2c2oc(-c3nnn[nH]3)cc(=O)c21` [H/C2 H5 T, 5-Ethyl-2-(1H-tetrazol-5-yl)pyrano[3,2-b]indol-4(5H)-one]: under setting [2], the inhibition in vivo at 1 mg/kg was determined as 100%. The inhibition in vivo at 5 mg/kg under setting [1] stood at 100%. Besides, the “inhibition (PCA test), oral” value (5 mg/kg) amounted to 70%.

Turning to `Cn1c2ccccc2c2oc(C(=O)O)cc(=O)c21` [H/CH3 A, 4,5-dihydro-5-methyl-4-oxopyrano[3,2-b]indole-2-carboxylic acid, reference compound], under setting [2], the inhibition in vivo at 1 mg/kg came out at 30%. In addition, under setting [1], the inhibition in vivo at 5 mg/kg was 100%.

In the case of `Cn1c2ccccc2c2oc(C(=O)Nc3nnn[nH]3)cc(=O)c21` [H/CH3 C, 4,5-Dihydro-5-methyl-4-oxo-N-1H-tetrazol-5-ylpyrano[3,2-b]indole-2-carboxamide], under setting [2], the inhibition in vivo at 1 mg/kg worked out at 28%. Also, under setting [1], the inhibition in vivo at 5 mg/kg was found to be 100%.

Take `Cn1c2ccccc2c2oc(-c3nnn[nH]3)cc(=O)c21` [H/CH3 T, 5-Methyl-2(1H-tetrazol-5-yl)pyrano[3,2-b]indol-4(5H)-one]: the inhibition in vivo at 1 mg/kg under setting [2] was determined as 87%. In addition, the inhibition in vivo at 5 mg/kg under setting [1] was found to be 100%. In addition, the “inhibition (PCA test), oral” value is, setting by setting: (2 mg/kg) 12%; (5 mg/kg) 39%.
